From US11414431B2, “Substituted pyrazolo[1,5-a]pyrimidines as TYK2 inhibitors” (Nimbus Lakshmi, Inc., priority 2018, dated 2022) come the findings set out here.

This test relates to IL-12 induced STAT4 phosphorlyation mediated by TYK2/JAK2. The test can be described thus: IL-12 Induced pSTAT4 in Human PBMC. As to conditions: 1.7 ng/mL IL-12 for 30 minutes. It counts as cell-based. An outline of the steps:
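Thawed human PBMC pre-incubated with compound 1 hr at 37° C (0.1% DMSO final), then stimulated 30 minutes with IL-12 at 1.7 ng/mL final. pSTAT4 and total STAT4 measured in cell lysates with MSD reagents.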

Bounds are passed on as bounds.

For orientation: IC50 means the concentration needed to halve the response being measured. Turning to `CNc1cc(-c2cnc3n([C@H]4COC[C@@H]4OC)cccc2-3)nc2c(C(=O)N[C@@H]3CC[C@@H]3F)cnn12` [Compound I-840], the IC50 was less than 0.1 µM.
As for `CNc1cc(-c2cnc3n([C@@H]4COC[C@H]4OC)cccc2-3)nc2c(C(=O)NC3CC[C@H]3F)cnn12` (stereo partly drawn) [Compound I-841], the IC50 is less than 0.1 µM.
Consider `CNc1cc(-c2cnc3n([C@@H]4CCOC[C@H]4O)cccc2-3)nc2c(C(=O)N[C@H]3CC[C@@H]3F)cnn12` [Compound I-848], for which the IC50 is less than 0.1 µM.
`CNc1cc(-c2cnc3n([C@@H]4COC[C@H]4OC)cccc2-3)nc2c(C(=O)NC3CC[C@H]3O)cnn12` (stereo partly drawn) [Compound I-865] returned an IC50 of 0.5 to 1 µM.
Still for that read-out and setting: then `CNc1cc(-c2cnc3n([C@@H]4COC[C@H]4OC)cccc2-3)nc2c(C(=O)N[C@@H]3CC[C@@H]3O)cnn12` [Compound I-867], with 0.1 to 0.5 µM; and `CNc1cc(-c2cnc3n([C@@H]4COC[C@H]4O)cccc2-3)nc2c(C(=O)N[C@@H]3CC[C@H]3OC)cnn12` [Compound I-876], with less than 0.1 µM.
On to `CNc1cc(-c2cnc3n([C@H]4COC[C@@H]4O)cccc2-3)nc2c(C(=O)NC3CC[C@@H]3OC)cnn12` (stereo partly drawn) [Compound I-877], for which the IC50 is 0.1 to 0.5 µM.
Still for that read-out and setting: then `CNc1cc(-c2cnc3n([C@H]4COC[C@@H]4O)cccc2-3)nc2c(C(=O)N[C@@H]3CC[C@H]3OC)cnn12` [Compound I-878], with less than 0.1 µM.
For `CNc1cc(-c2cnc3n([C@H]4COC[C@@H]4OC)cccc2-3)nc2c(C(=O)NC3CC[C@@H]3OC)cnn12` (stereo partly drawn) [Compound I-880], the IC50 is less than 0.1 µM.
Same read-out and setting: then `CNc1cc(-c2cnc3n([C@H]4COC[C@@H]4OC)cccc2-3)nc2c(C(=O)N[C@@H]3CC[C@H]3OC)cnn12` [Compound I-881], with less than 0.1 µM; and `CNc1cc(-c2cnc3n([C@@H]4COC[C@H]4OC)cccc2-3)nc2c(C(=O)NC3CC[C@@H]3OC)cnn12` (stereo partly drawn) [Compound I-883], with less than 0.1 µM; and `CNc1cc(-c2cnc3n([C@@H]4COC[C@H]4OC)cccc2-3)nc2c(C(=O)N[C@@H]3CC[C@H]3OC)cnn12` [Compound I-884], with less than 0.1 µM.
The same measure, in the same setting: then `CNc1cc(-c2cnc3n([C@@H]4CCOC[C@H]4OC)cccc2-3)nc2c(C(=O)N[C@@H]3CC[C@H]3OC)cnn12` [Compound I-896], with less than 0.1 µM; and `CNc1cc(-c2cnc3n([C@H]4COC[C@@H]4O)cccc2-3)nc2c(C(=O)NC3CCC3(F)F)cnn12` (stereo partly drawn) [Compound I-898], with less than 0.1 µM; and `CNc1cc(-c2cnc3n([C@@H]4COC[C@H]4O)cccc2-3)nc2c(C(=O)NC3CCC3(F)F)cnn12` (stereo partly drawn) [Compound I-901], with less than 0.1 µM.
Compound `CNc1cc(-c2cnc3n([C@@H]4COC[C@H]4O)cccc2-3)nc2c(C(=O)N[C@H]3CCC3(F)F)cnn12` [Compound I-902] registered an IC50 of less than 0.1 µM.
Same read-out and setting: then `CNc1cc(-c2cn([C@H]3C[C@@H](COC)C3)c3ncccc23)nc2c(C(=O)NC3CC[C@H]3O)cnn12` (stereo partly drawn) [Compound I-912], with less than 0.1 µM; and `CNc1cc(-c2cn([C@H]3C[C@@H](COC)C3)c3ncccc23)nc2c(C(=O)N[C@@H]3CC[C@@H]3O)cnn12` [Compound I-914], with less than 0.1 µM; and `CNc1cc(-c2cn([C@H]3[C@@H]4COC[C@@H]43)c3ncccc23)nc2c(C(=O)N[C@H]3CC[C@@H]3O)cnn12` [Compound I-915], with less than 0.1 µM.
On the same count and under the same terms, then `CNc1cc(-c2cn([C@H]3CCOC[C@@H]3F)c3ncccc23)nc2c(C(=O)N[C@H]3CC[C@H]3O)cnn12` [Compound I-916], with 0.1 to 0.5 µM; and `CNc1cc(-c2cn([C@@H]3CCOC[C@H]3F)c3ncccc23)nc2c(C(=O)N[C@H]3CC[C@H]3O)cnn12` [Compound I-918], with less than 0.1 µM; and `CNc1cc(-c2cn(CC(=O)N(C)C)c3ncccc23)nc2c(C(=O)N[C@H]3CC[C@@H]3OC)cnn12` [Compound I-921], with less than 0.1 µM.
As to `CNc1cc(-c2cn(CCOC)c3ncccc23)nc2c(C(=O)N[C@H]3CC[C@@H]3OC)cnn12` [Compound I-923], the IC50 was less than 0.1 µM.
The compound `CNc1cc(-c2cn([C@H]3C[C@@H](OC)C3)c3ncccc23)nc2c(C(=O)NC3CC[C@@H]3OC)cnn12` (stereo partly drawn) [Compound I-925, N-(2-methoxycyclobutyl)-5-(1-((1s,3S)-3-methoxycyclobutyl)-1H-pyrrolo[2,3-b]pyridin-3-yl)-7-(methylamino)pyrazolo[1,5-a]pyrimidine-3-carboxamide] yielded an IC50 (0.5 h) of less than 0.1 µM.
`CNc1cc(-c2cn(CC(=O)N3CCC3)c3ncccc23)nc2c(C(=O)N[C@H]3CC[C@@H]3OC)cnn12` [Compound I-929] came in with an IC50 of 0.1 to 0.5 µM.
The compound `CNc1cc(-c2cn(CC(=O)N3CCCC3)c3ncccc23)nc2c(C(=O)NC3CC[C@@H]3OC)cnn12` (stereo partly drawn) [Compound I-931] gave an IC50 of 0.1 to 0.5 µM.
On to `CNc1cc(-c2cn([C@H]3C[C@@H](COC)C3)c3ncccc23)nc2c(C(=O)NC3CC[C@@H]3OC)cnn12` (stereo partly drawn) [Compound I-932, N-(2-methoxycyclobutyl)-5-(1-((1s,3R)-3-(methoxymethyl)cyclobutyl)-1H-pyrrolo[2,3-b]pyridin-3-yl)-7-(methylamino)pyrazolo[1,5-a]pyrimidine-3-carboxamide], for which the IC50 (0.5 h) was less than 0.1 µM.
`CNc1cc(-c2cn([C@@H]3CCOC[C@H]3F)c3ncccc23)nc2c(C(=O)N[C@H]3COC[C@H]3O)cnn12` [Compound I-937] had an IC50 of 0.1 to 0.5 µM.
As for `CNc1cc(-c2cnc3n([C@@H]4CCOC[C@@H]4F)cccc2-3)nc2c(C(=O)NC3CC[C@H]3O)cnn12` (stereo partly drawn) [Compound I-939, 5-(7-((3R,4R)-3-fluorotetrahydro-2H-pyran-4-yl)-7H-pyrrolo[2,3-b]pyridin-3-yl)-N-((cis-1,2)-2-hydroxycyclobutyl)-7-(methylamino)pyrazolo[1,5-a]pyrimidine-3-carboxamide], the IC50 (0.5 h) was in the range of 0.1 to 0.5 µM.
`CNc1cc(-c2cnc3n([C@H]4CCOC[C@H]4F)cccc2-3)nc2c(C(=O)NC3CC[C@H]3O)cnn12` (stereo partly drawn) [Compound I-942] returned an IC50 of 0.5 to 1 µM.
Regarding `CNc1cc(-c2cnc3n([C@@H]4CN(C)C[C@H]4OC)cccc2-3)nc2c(C(=O)NC3CC[C@@H]3OC)cnn12` (stereo partly drawn) [Compound I-943], the IC50 was less than 0.1 µM.
`CNc1cc(-c2cnc3n([C@@H]4CN(C)C[C@H]4OC)cccc2-3)nc2c(C(=O)N[C@H]3CC[C@@H]3OC)cnn12` [Compound I-944] gave an IC50 of less than 0.1 µM.
The same measure, in the same setting: then `CNc1cc(-c2cnc3n([C@H]4CN(C)C[C@@H]4OC)cccc2-3)nc2c(C(=O)N[C@H]3CC[C@@H]3OC)cnn12` [Compound I-947], with less than 0.1 µM; and `CNc1cc(-c2cn(CC(=O)N3CCOCC3)c3ncccc23)nc2c(C(=O)N[C@H]3CC[C@@H]3OC)cnn12` [Compound I-963], with 0.1 to 0.5 µM.
On the same count and under the same terms, then `CNc1cc(-c2cn(CC(=O)N3CCCC3)c3ncccc23)nc2c(C(=O)N[C@H]3CC[C@@H]3OC)cnn12` [Compound I-965], with less than 0.1 µM.
Take `CNc1cc(Nc2cccn(C3CCOCC3)c2=O)nc2c(C(=O)N[C@@H]3CC[C@]3(O)C(F)(F)F)cnn12` [Compound I-976]: the IC50 lay in the range of 0.1 to 0.5 µM.
Same read-out and setting: then `CNc1cc(-c2cnc3n(CC(=O)N4CCC4)cccc2-3)nc2c(C(=O)N[C@H]3CC[C@@H]3OC)cnn12` [Compound I-977], with more than 1 µM.
`CNc1cc(-c2cnc3n(CC(C)(C)O)cccc2-3)nc2c(C(=O)N[C@H]3CC[C@@H]3OC)cnn12` [Compound I-983] registered an IC50 of less than 0.1 µM.
The same measure, in the same setting: then `CNc1cc(-c2cnc3n(CCCN4CCOCC4)cccc2-3)nc2c(C(=O)N[C@H]3CC[C@@H]3OC)cnn12` [Compound I-990], with less than 0.1 µM.
In turn, `CNc1cc(-c2cn(C(C)C)c3nnccc23)nc2c(C(=O)NC3CC[C@@H]3OC)cnn12` (stereo partly drawn) [Compound I-993] displayed an IC50 of less than 0.1 µM.
Regarding `CNc1cc(-c2cnc3n([C@H]4CCOC4)cccc2-3)nc2c(C(=O)NC3CC[C@@H]3OC)cnn12` (stereo partly drawn) [Compound I-994, N-(2-methoxycyclobutyl)-7-(methylamino)-5-(7-((S)-tetrahydrofuran-3-yl)-7H-pyrrolo[2,3-b]pyridin-3-yl)pyrazolo[1,5-a]pyrimidine-3-carboxamide], the IC50 (0.5 h) is less than 0.1 µM.
As for `CNc1cc(-c2cnc3n([C@@H]4CCOC4)cccc2-3)nc2c(C(=O)NC3CC[C@@H]3OC)cnn12` (stereo partly drawn) [Compound I-995], the IC50 is less than 0.1 µM.
Same read-out and setting: then `CO[C@H]1CCC1NC(=O)c1cnn2c(N)cc(-c3cnc4n([C@H]5COC[C@@H]5OC)cccc3-4)nc12` (stereo partly drawn) [Compound I-999], with 0.1 to 0.5 µM; and `CNc1cc(-c2cn(C(C)C)c3nnccc23)nc2c(C(=O)N[C@H]3CC[C@H]3O)cnn12` [Compound I-1000], with 0.5 to 1 µM.
Same read-out and setting: then `CNc1cc(-c2cnc3n([C@H]4CCOC4)cccc2-3)nc2c(C(=O)N[C@H]3CC[C@@H]3OC)cnn12` [Compound I-1002], with less than 0.1 µM; and `CNc1cc(-c2cnc3n([C@@H]4CCOC4)cccc2-3)nc2c(C(=O)N[C@H]3CC[C@@H]3OC)cnn12` [Compound I-1004], with less than 0.1 µM; and `CNc1cc(-c2cnc3n([C@@H]4CCOC4)cccc2-3)nc2c(C(=O)N[C@@H]3CC[C@H]3OC)cnn12` [Compound I-1005], with 0.1 to 0.5 µM.
Same read-out and setting: then `CO[C@H]1CC[C@@H]1NC(=O)c1cnn2c(N)cc(-c3cnc4n([C@H]5COC[C@@H]5OC)cccc3-4)nc12` [Compound I-1006], with less than 0.1 µM; and `CNc1cc(-c2cn(C(C)C)c3nnccc23)nc2c(C(=O)N[C@@H]3CC[C@H]3OC)cnn12` [Compound I-1009], with less than 0.1 µM.
Compound `CO[C@H]1CC[C@@H]1NC(=O)c1cnn2c(N)cc(-c3cnc4n([C@@H]5COC[C@H]5OC)cccc3-4)nc12` [Compound I-1010] gave an IC50 of 0.1 to 0.5 µM.
`CNc1cc(-c2cn([C@@H]3CC(=O)N(C)C3)c3ncccc23)nc2c(C(=O)NC3CC[C@@H]3OC)cnn12` (stereo partly drawn) [Compound I-1016, N-(2-methoxycyclobutyl)-5-(1-((R)-1-methyl-5-oxopyrrolidin-3-yl)-1H-pyrrolo[2,3-b]pyridin-3-yl)-7-(methylamino)pyrazolo[1,5-a]pyrimidine-3-carboxamide] registered an IC50 (0.5 h) of 0.1 to 0.5 µM.
